Patent US20250163016A1, “PYRIDINE DERIVATIVE, PREPARATION METHOD THEREFOR AND USE THEREOF” (CHENGDU EASTON BIOPHARMACEUTICALS CO., LTD., priority 2022, published 2025)

Key:
[1] = Pharmacokinetics of oral and intravenous administration of rats; assay type: in vivo; conditions: male, rat, plasma, SD rats; for bioavailability: oral, p.o. 5.0 mg/kg vs i.v. 5.0 mg/kg, read-out: F (bioavailability)
Protocol: With SD rats as tested animals, blood drug concentrations of the compounds of the present application in plasma at different moments after oral administration and intravenous administration to the rats were determined using an LC-MS/MS method, pharmacokinetic parameters and bioavailabilities of the compounds of the present application in the rats were obtained, and pharmacokinetic characteristics of the compounds were studied.
• SD rats, male, weight 180-220 g, 3 rats per group. The animals were fed in an animal house after being purchased, an adaptation period was at least 3 days, and they were used for tests after passing quarantine.
3.2. Solvent: p.o.: 0.5% Sodium Methylcellulose Aqueous Solution
• i.v.: 5% DMSO+10% Solutol+85% Saline
(§1) According to Table 6, each group of rats was given the corresponding tested drugs or positive drugs by gavage, before administration, and 5 min, 15 min, 30 min, 1 h, 2 h, 4 h, 6 h, 8 h, 10 h and 24 h after administration, a fixed volume of blood was collected through eye sockets and placed in an EDTA-K2 anticoagulant tube, centrifuging was carried out at 8000 rpm for 1 min to separate plasma into a centrifuge tube, and the plasma was frozen in a −20° C. refrigerator.
(§2) The plasma at each time point stored at −20° C. was taken out, then acetonitrile was added, after whirling at 1500 revolutions for 2 min, centrifuging was carried out for 15 min (3500 r/min), and a fixed volume of solution supernatant was taken for LC-MS/MS analysis.
(§3) Non-compartment model fitting was carried out on pharmacokinetic behaviors of the tested compounds, and DAS3.31 software was adopted to calculate main pharmacokinetic parameters (T1/2, Tmax, Cmax, AUClast, etc.).

[2] = Pharmacokinetics of oral administration of mice under different solvent conditions; assay type: in vivo; conditions: male, Balb/c, mouse, plasma, 5 mg/kg, p.o. 5.0 mg/kg
Protocol: With Balb/c mice as tested animals, blood drug concentrations of the compounds of the present application in plasma at different moments after administration of the mice under different solvent conditions were determined using an LC-MS/MS method. Pharmacokinetic parameters of the compounds of the present application in the mice under the different solvent conditions were obtained, and pharmacokinetic characteristics of the compounds were studied.
• Balb/c mice, male, weight 18-22 g, 6 mice per group. The animals were fed in an animal house after being purchased, an adaptation period was at least 3 days, and they were used for tests after passing quarantine.
as §1, with “8,” for “6,”, “mice” for “rats”, “and” for “and 5 min,”
as §2, §3

LSD1 = target: T1, LSD1 (Homo sapiens, UniProt O60341); experiment: LSD1 activity test (HTRF); assay type: biochemical; conditions: H3(1-21)K4 me1-biotin substrate, read-out: IC50, inhibitory activity on LSD1
T1 construct: purchased Active Motif 31432
Protocol: In this test, a homogeneous time resolved fluorescence (HTRF) technology was utilized, and the inhibitory activity of compounds on LSD1 was detected by adopting a two-step method. The first step was to incubate LSD1, compounds of different concentrations, and a biotin-labeled methylated polypeptide substrate (H3(1-21)K4 me1-biotin) at the room temperature for fixed time.
A corresponding solution with a 1000-fold final concentration was formed by dilution in a 384-well Source plate, and then Echo550 was used for transferring 10 nL to a 384-well reaction plate for being tested.
An inhibition percentage was calculated using a maximum value, a minimum value, and a signal value (maximum value: fluorescence intensity of 5 μL of 2× enzyme solution+5 μL of 2× substrate mixed solution+10 nL of 100% DMSO+10 μL of detection solution; minimum value: fluorescence intensity of 5 μL of 1× reaction solution+5 μL of 2× substrate mixed solution+10 nL of 100% DMSO+10 μL of detection solution; and signal value: fluorescence intensity of 5 μL of 2× enzyme solution+5 μL of 2× substrate mixed solution+10 nL of diluted compound to be tested+10 μL of detection solution), and a calculation formula was as follows: […]
Using a logarithm of the concentration as an X axis and the percentage inhibition rate as a Y axis, a dose-response curve was fitted using a formula log(inhibitor) vs. response-Variable slope (Four parameters) of analysis software Graphpad Prism 5 to obtain the IC50 value of each compound on the enzyme activity.

[3] = tested on: Kasumi-1 cell subcutaneous heterograft tumor; experiment: In-vivo efficacy in Kasumi-1 cell subcutaneous heterograft tumor model; conditions: for weight of the mice after administration / tolerance of the tested animals: Kasumi-1 xenograft mice; for weight of the mice after administration: FIG. 3; for tolerance of the tested animals: qd p.o. 20 days; for TGI: Kasumi-1 xenograft, qd, p.o., 20 days
Protocol: • RPMI 1640 culture medium containing 20% fetal bovine serum (FBS), 37° C., 5% CO2.
• Solvent: 0.5% methylcellulose aqueous solution; • Tested drug: compounds 16 and 36.
CB17 SCID mice, female, 6-8 weeks, weight about 18-22 grams, and each mouse was subcutaneously inoculated with 0.1 mL (1×10^7 cells+matrigel) of Kasumi-1 cells on the right side. When an average volume of tumors reached 100-200 cubic millimeters, group administration was performed, see the table below (Table 12) for administration dosages and methods. The tumor volume was measured twice a week, the weights of the mice as well as lengths and widths of tumors were recorded in each time of measurement, and the tumor volume=length×width×width/2 mm^3. When the average tumor volume of a solvent group grew to 3000 cubic millimeters or above, administration was ended, each group of mice was killed and dissected to take out tumor lumps, the tumor weight of each mouse was weighed and the tumor volume was measured, and an average tumor volume difference between a tested compound group and the solvent group was obtained via comparison. The tumor suppression effects of the compounds were evaluated with TGI (%), which could reflect a tumor growth inhibition rate.
Calculation of TGI (%):TGI (%)=[1−(current average tumor volume of compounds−average tumor volume at the beginning of compounds)/(current average tumor volume of solvent group−average tumor volume at the beginning of solvent group)]×100%

[4] = iv, i.v. 5.0 mg/kg, 5% DMSO+10% Solutol+85% Saline
[5] = po, p.o. 5.0 mg/kg, 0.5% sodium methylcellulose aqueous solution
[6] = solvent 0.5% sodium methylcellulose aqueous solution
[7] = solvent 5% DMSO + 10% Solutol + 85% Saline

Q: What does the source list for `COc1ccc(-c2c(-c3ccc(C#N)c(F)c3)nc(N3CCC(N)CC3)n(C)c2=O)cc1F` [CC-90011, reference compound]?
A: AUC(0-t) [1, 4]: 906 ± 194 ng·h/mL; Cmax [1, 4]: 895 ± 90.4 ng/mL; Tmax [1, 4]: 0.08 h; half-life [1, 4]: 3.32 ± 0.72 h; bioavailability [1]: 32.1%; AUC(0-t) [1, 5]: 299 ± 178 ng·h/mL; Cmax [1, 5]: 49.2 ± 8.71 ng/mL; Tmax [1, 5]: 2.67 ± 1.15 h; half-life [1, 5]: 4.15 ± 0.7 h; AUC(0-t) [2, 6]: 965 ± 120 ng·h/mL; Tmax [2, 6]: 3.33 ± 1.15 h; half-life [2, 6]: 5.01 ± 0.04 h; AUC(0-t) [2, 7]: 871 ± 270 ng·h/mL; Cmax [2, 7]: 173 ± 50.9 ng/mL; Tmax [2, 7]: 1 h; half-life [2, 7]: 2.44 ± 0.34 h

Q: With `CC(C)(O)Cn1ncc2cc(-c3c(C#N)cc(N4CCC(N)CC4)nc3-c3ccc(C#N)c(F)c3)c(F)cc21` [Compound 16, 6-(4-aminopiperid-1-yl)-2-(4-cyano-3-fluorophenyl)-3-(6-fluoro-1-(2-hydroxyl-2-methylpropyl)-1H-indazol-5-yl)isonicotinonitrile] as the molecule, how does the IC50 (LSD1) read?
A: 0.23 nM

Q: And the AUC(0-t) [1, 4]?
A: 1490 ± 157 ng·h/mL

Q: And the Cmax [1, 4]?
A: 765 ± 181 ng/mL

Q: What about the Tmax [1, 4] of the same molecule?
A: 0.08 h

Q: What about the half-life [1, 4] of the same molecule?
A: 5.61 ± 1.29 h

Q: What about the bioavailability [1] of the same molecule?
A: 46.2%

Q: What about the AUC(0-t) [1, 5] of the same molecule?
A: 693 ± 248 ng·h/mL

Q: And the Cmax [1, 5]?
A: 75.2 ± 20.3 ng/mL

Q: And the Tmax [1, 5]?
A: 4 h

Q: What about the half-life [1, 5] of the same molecule?
A: 4.73 ± 0.22 h

Q: And the AUC(0-t) [2, 6]?
A: 3220 ± 1510 ng·h/mL

Q: And the Cmax [2, 6]?
A: 895 ± 499 ng/mL

Q: What about the Tmax [2, 6] of the same molecule?
A: 3.33 ± 1.15 h

Q: And the half-life [2, 6]?
A: 3.99 ± 0.59 h

Q: What about the AUC(0-t) [2, 7] of the same molecule?
A: 2420 ± 123 ng·h/mL

Q: What about the Cmax [2, 7] of the same molecule?
A: 612 ± 111 ng/mL

Q: And the Tmax [2, 7]?
A: 2.67 ± 1.15 h

Q: What about the half-life [2, 7] of the same molecule?
A: 5.52 ± 0.67 h

Q: What about the “weight of the mice after administration” value [3] of the same molecule?
A: does not decrease

Q: What about the “tolerance of the tested animals” value [3] of the same molecule?
A: good tolerance

Q: And the TGI ([3]; 3.5 mg/Kg)?
A: 78.28%

Q: What about the TGI ([3]; 5 mg/Kg) of the same molecule?
A: 86.13%

Q: Which IC50 (LSD1) does the source give for `CC(C)(O)Cn1nc(F)c2cc(-c3c(C#N)cc(N4CCC(N)CC4)nc3-c3ccc(C#N)c(F)c3)c(F)cc21` [Compound 36, 6-(4-aminopiperid-1-yl)-2-(4-cyano-3-fluorophenyl)-3-(3,6-difluoro-1-(2-hydroxyl-2-methylpropyl)-1H-indazol-5-yl)isonicotinonitrile] here?
A: 0.45 nM

Q: And the “weight of the mice after administration” value [3]?
A: does not decrease

Q: And the “tolerance of the tested animals” value [3]?
A: good tolerance

Q: And the TGI ([3]; 5 mg/Kg)?
A: 84.87%
